# Experimental data taken from patent US20220133701A1, “METHODS OF TREATING PAIN” (Yeda Research and Development Co. Ltd., priority 2019, published 2022).
# Legend:
# Format in all cases: in vivo, mouse
# [1] = tested on: SNI mice; experiment: Spared nerve injury (SNI) model of neuropathic pain, paw withdrawal threshold (PWT) by Von Frey test; details: SNI mice, viral (AAV9) knockdown followed by SNI, from day 60 onward, vs shCtrl (FIG. 4E)
# Procedure: Chronic neuropathic pain was assessed using the spared nerve injury (SNI) model^13. Mice were anaesthetized with Ketamine/Xylazine (10 mg/kg body weight, intraperitoneal). The skin on the lateral surface of the thigh was incised and a section was made directly through the biceps femoris muscle in order to expose the sciatic nerve and its three terminal branches: the sural, common peroneal and tibial nerves. The SNI procedure comprised an axotomy and ligation of the tibial and common peroneal nerves leaving the sural nerve intact. The peroneal and the tibial nerves were tight-ligated and sectioned distal to the ligation. […] Following, mice were evaluated over a period of three months.
# Von Frey tests of sensitivity to mechanical stimuli were conducted as previously described [Marvaldi et al. Dev Neurobiol 75, 217 (2015)]. Briefly, mice were placed in acrylic chambers suspended above a wire mesh grid and allowed to habituate to the testing apparatus for one hour prior to experiments. When the mouse was calm, the von Frey filaments were pressed against the plantar surface of the paw until the filament buckled and held for a maximum of 3 seconds. A positive response was noted if the paw was sharply withdrawn on application of the filament. Testing began with filament target force 13.7 milliNewtons and progressed according to an up-down method. 2 gram Von Frey filaments were used to assess sensitivity to noxious mechanical stimulation, scoring mice responses as follows: 0, no response; 1, visible signs of discomfort without leg withdrawal; 2, withdrawal of the leg.
# [2] = tested on: importin α3; experiment: Importin α3 immunostaining intensity in DRG sections and cultured DRG neurons (line scan / nuclear intensity)
# Procedure: Histology—Lumbar sections of the spinal cord including Dorsal root ganglia (DRGs) were pre-fixed for 6 minutes before dissection of spinal cord and associated DRGs. Lumbar DRG (L4, unless otherwise indicated) and/or spinal cord were then fixed for six hours in 4% PFA in PBS, washed in PBS and equilibrated in 20% w/v sucrose in PBS prior to serial cryo-sectioning at a thickness of 10-20 μm. Following, one set for each DRG was processed for immunostaining. […]
# Fluorescence Intensity Analysis: Line scan analysis of fluorescence intensity was carried out on high-resolution confocal z-stack from DRG sections to determine fluorescence intensity of c-FOS and importin α3 over cell regions of interest in-vivo. […] The integrated density was calculated as the sum of the values of the pixels in both cytoplasmic and nuclear regions of interest determined on the basis of TuJ-1, CGRP, TRPV1 or DAPI staining, respectively.
# [3] = tested on: mice; experiment: Open field; details: wild-type mice three weeks after intrathecal AAV9 shRNA (FIG. 5A)
# Procedure: Motility and anxiety-like behaviors were assayed in the open field (OF) as previously described^8. Mouse activity was tracked and recorded using VideoMot2 (TSE System, Germany). OF was performed under 120 1× for the assessment of anxiety-related behaviors. The OF raw data were further analyzed with COLORcation [Dagan et al. J Neurosci Methods 270, 9 (2016)].
# [4] = tested on: mice; experiment: Rotarod; details: wild-type mice three weeks after intrathecal AAV9 shRNA (FIG. 5B)
# Procedure: Rotarod experiments to assess integrity of balance and coordination [Crawley. Neuron 57, 809 (2008)] was carried out using a ROTOR-ROD™ system (83×91×61-SD Instruments, San Diego). Mice were subjected to three trials with 20 minutes inter-trial intervals over three consecutive days, at three weeks and five weeks after AAV9 injection, calculating the daily average each time. Rotarod acceleration was set to 20 rpm in 240 seconds. Latency to fall (sec) was recorded and the average of the three or six consecutive trials was used as an index of motor coordination and balance.
# [5] = listed as anti-importin α3 shRNAs
substance,measurement,setting,value
"shα3: AAV9 expressing an importin α3 targeting shRNA (SEQ ID NO: 8), intrathecal injection (DNA GATCCGGCTTTGACAAACATTGCATGAAGCTTGATGCAATGTTTGTCAAAGCCTTTTTT)","paw withdrawal threshold (PWT), Von Frey test",[1],recovery
same,"paw withdrawal threshold (PWT), Von Frey test",[1]; listed as anti-importin α3 shRNA,significant recovery of the paw withdrawal reflex
same,impα3 nuclear intensity in cultured DRG neurons,[2]; cultures of treated animals vs shCtrl (FIGS. 3G-H),significant reduction in nuclear levels
same,"impα3 signal, line scan intensity in DRG sections","[2]; wild type mice one month following intrathecal injection, vs shCtrl (FIG. 3E)",reduction of impα3 signal
same,open field (exploratory behaviour),[3],No deficits were observed in either test
same,open field (exploratory behaviour),[3]; [5],no effect
same,rotarod (motor coordination),[4],No deficits were observed in either test
same,rotarod (motor coordination),[4]; [5],no effect
